Test results taken from BindingDB's records for patent US20230339981 (Gilead Sciences, 2023).

Target: GTPase KRas [G12D] (Homo sapiens, UniProt P01116, G12D)
Assay: Biochemical Assay
Protocol: Compounds were tested for binding to GDP-loaded KRAS G12D in a 384-well assay format using a TR-FRET probe displacement assay in buffer consisting of 50 mM Hepes (pH 7.4), 150 mM NaCl, 5 mM MgCl2 and 0.005% Tween-20. […] Compounds were serially diluted (1:3) in DMSO. The LabCyte ECHO Acoustic dispenser system was used to pre-spot the assay plates (384-well Non-Binding Surface plates, Corning, Catalog #3824) with 50 nL of compound. The compounds were pre-incubated with 5 μL of 2× final enzyme concentration for 30 minutes before adding 5 μL of 2× final concentration of Eu-streptavidin and TR-FRET probe (10 μL final reaction volume). The plates were incubated at room temperature for 2 hours before measuring TR-FRET ratio on the Envision plate reader. IC50 values were defined as the compound concentration that causes a 50% decrease in TR-FRET ratio and were calculated using a sigmoidal dose-response model to generate curve fits.

Sequence of GTPase KRas [G12D] (P01116 whole entry G12D): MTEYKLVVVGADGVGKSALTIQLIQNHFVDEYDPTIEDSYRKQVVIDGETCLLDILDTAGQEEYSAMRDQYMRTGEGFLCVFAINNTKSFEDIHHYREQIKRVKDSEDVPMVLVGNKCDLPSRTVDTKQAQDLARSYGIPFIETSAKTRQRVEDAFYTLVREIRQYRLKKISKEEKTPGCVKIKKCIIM

SMILES	IC50 [nM]
C#Cc1c(F)ccc2cc(O)cc(-c3nc4c5c(nc(OC[C@@]67CCCN6C[C@H](F)C7)nc5c3F)N3C[C@H]5CC[C@H](N5)[C@@H]3CC4)c12 [US20230339981, Example 133]	0.1
C#Cc1c(F)ccc2cc(O)cc(-c3nc4c5c(nc(OCC6(CN7CCC8(CC7)CC8)CC6)nc5c3F)N3C[C@H]5CC[C@H](N5)[C@H]3CC4)c12 [US20230339981, Example 177]	0.1
C#Cc1c(F)ccc2cccc(-c3nc4c5c(nc(OC[C@@]67CCCN6C[C@@H](OC(F)(F)F)C7)nc5c3F)N3C[C@H]5CC[C@H](N5)[C@H]3CC4)c12 [US20230339981, Example 140]	3.7
C#Cc1c(F)ccc2cc(O)cc(-c3nc4c5c(nc(OC[Si](C)(C)CN6CCOCC6)nc5c3F)N3C[C@H]5CC[C@H](N5)[C@H]3CO4)c12 [US20230339981, Example 29]	560
Fc1ccc2cccc(-c3nc4c5c(nc(OC[C@@]67CCCN6C[C@H](F)C7)nc5c3F)N3C[C@H]5CC[C@H](N5)[C@H]3CC4)c2c1OC(F)(F)F [US20230339981, Example 65]	89
